PMC8604788 (ACS chemical biology, 2021)

Biological target: T1, proline utilization A (SmPutA), bifunctional PRODH-GSALDH enzyme (Sinorhizobium meliloti, UniProt F7X6I3)
T1 sequence (F7X6I3 1-1233): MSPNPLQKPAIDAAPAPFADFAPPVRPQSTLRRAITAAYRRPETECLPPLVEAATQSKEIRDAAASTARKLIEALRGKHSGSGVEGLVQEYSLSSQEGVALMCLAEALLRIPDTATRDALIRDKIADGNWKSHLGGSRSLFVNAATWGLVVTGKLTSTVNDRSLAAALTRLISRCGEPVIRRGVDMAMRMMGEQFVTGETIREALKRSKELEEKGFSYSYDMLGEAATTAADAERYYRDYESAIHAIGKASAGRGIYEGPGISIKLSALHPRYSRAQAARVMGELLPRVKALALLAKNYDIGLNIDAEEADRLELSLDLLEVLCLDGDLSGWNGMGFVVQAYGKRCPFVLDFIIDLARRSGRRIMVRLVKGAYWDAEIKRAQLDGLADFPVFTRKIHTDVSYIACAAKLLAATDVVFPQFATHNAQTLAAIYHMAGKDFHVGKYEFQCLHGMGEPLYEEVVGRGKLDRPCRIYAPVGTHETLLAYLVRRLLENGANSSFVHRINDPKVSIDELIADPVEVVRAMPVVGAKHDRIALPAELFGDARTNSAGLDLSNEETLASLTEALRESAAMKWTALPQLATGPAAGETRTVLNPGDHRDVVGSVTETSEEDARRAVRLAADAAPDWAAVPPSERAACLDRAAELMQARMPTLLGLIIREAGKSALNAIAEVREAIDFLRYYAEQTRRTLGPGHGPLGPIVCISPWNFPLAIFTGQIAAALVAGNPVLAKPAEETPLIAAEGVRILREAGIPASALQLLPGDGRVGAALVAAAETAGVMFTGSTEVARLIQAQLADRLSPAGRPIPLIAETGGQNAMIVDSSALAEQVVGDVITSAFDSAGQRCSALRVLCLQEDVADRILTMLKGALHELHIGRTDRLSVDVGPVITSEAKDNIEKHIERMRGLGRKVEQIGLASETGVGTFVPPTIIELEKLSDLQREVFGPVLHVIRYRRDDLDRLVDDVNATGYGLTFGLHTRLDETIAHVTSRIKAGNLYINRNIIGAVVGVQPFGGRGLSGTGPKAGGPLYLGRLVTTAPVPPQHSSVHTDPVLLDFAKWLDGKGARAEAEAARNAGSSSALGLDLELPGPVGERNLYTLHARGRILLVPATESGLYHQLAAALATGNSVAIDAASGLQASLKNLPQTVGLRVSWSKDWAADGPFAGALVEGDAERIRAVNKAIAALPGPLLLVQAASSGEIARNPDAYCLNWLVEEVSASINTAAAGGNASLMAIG
Test: X-ray crystal structures, noncovalent in the dark
Assay type: biochemical

- IC50: 22.4 µM
SMILES: O=C(O)C1SCCS1 [compound 4, 1,3-dithiolane-2-carboxylic acid]
